Values of other authors in patent publication US20050032677A1, “Fungicidal and/or bactericidal composition, production process thereof and sterilization method using the composition” (priority 2001, published 2005).
Read-outs that look alike come from different tables or passages of the source. *1 amine or outer side, *2 acyl side, *3 side chain or, on linkers, in order; H or OH if unused. Where a SMILES comes first, the peptide text is derived from it. Bridges are numbered along the chain shown (N, C = ends). [ ]: non-standard residue; d: D form. X1 = CC(C)CCCCCCCCC[C@H](CC(=O)[*:1])O[*:2]

Assays:
erythrocyte membrane = details: relative to mixing iturin and surfactin in the latter ratio (2:1)
erythrocyte = details: relative to mixing iturin and surfactin
mouse = details: hypodermic injection to a mouse

Row | Compound | critical micelle concentration (CMC) (aqueous solution) | critical micelle concentration (CMC) (in a 0.1M sodium hydrogencarbonate solution) | amount bound to the erythrocyte membrane relative to iturin:surfactin 2:1 (erythrocyte membrane) | hemolysis activity relative to iturin and surfactin mixture (erythrocyte) | LD50 (mouse)
1 | CC(C)CCCCCCCCC[C@@H]1CC(=O)N[C@@H](CCC(=O)O)C(=O)N[C@@H](CC(C)C)C(=O)N[C@H](CC(C)C)C(=O)N[C@@H](C(C)C)C(=O)N[C@@H](CC(=O)O)C(=O)N[C@H](CC(C)C)C(=O)N[C@@H](CC(C)C)C(=O)O1 [surfactin] (EL[dL]VD[dL]L; linker N-C via X1) | 250 µM | 10 µM | – | – | –
2 | iturin | 40 µM | – | at most a half | about one sixth | 157 mg/kg
